Assay results as given in patent US20030143645A1, “Quinone reductase 2 and aldehyde dehydrogenase as therapeutic targets” (priority 2001, published 2003).

System: purine binding proteome (hALDH1 and hQR2)
Test: ATP affinity array / ATP-Sepharose displacement elution of RBC purine binding proteome
Parameters: species or system human
Experimental: ATP-affinity array chromatography. In whole mouse experiments, the animal (except for its tail, feet, skin and intestines) was frozen in liquid N2 and blended in buffer A containing 50 mM Hepes, pH 7.5, 50 mM NaCl, 10 mM MgCl2, 0.1% NONIDET- P40, 1 mM dithiothreitol, 1 μg/ml leupeptin, 100 μg/ml pefabloc and 10 μg/ml aprotinin. Mouse lysate was clarified by centrifugation for 1 hr at 100,000×g. For infected and non-infected RBC's˜1.5×10^9 cells were mixed with an equal volume of 2×buffer A, rocked for 30 min at 4° C., and clarified by centrifugation for 1 hr at 100,000×g. Supernatants were dialyzed overnight against 50 mM Hepes, pH 7.5, 50 mM NaCl, 10 mM MgCl2 and 1 mM dithiothreitol. […] Proteins were resolved by 12% SDS-PAGE and visualized by staining either with Coomassie brilliant Blue R-250 or silver nitrate. Alternatively, proteins were transferred to membrane GeneMate (Kaysville, Utah) in transfer buffer (25 mM Tris, 200 mM glycine, 20% methanol, and 0.01% SDS) for mixed peptide sequencing (Damer et al, J. Biol. Chem. 273:24396 (1998)). hALDH 1 and hQR2 purification and activity assays. Fresh human red blood cells (RBC) were obtained from Valley Biomedical, washed twice with PBS, and lysed in buffer B (0.1% Triton X, 50 mM Tris pH 7.5, 125 mM NaCl, 1 μg/mL aprotonin, 1 μg/mL pepstatin and 10 μg/mL PEFABLOC). Lysates were centrifuged twice at 125,000×g for 1 hr at 4° C. Cleared supernatant was filtered through a […] filter and loaded onto PQ-Sepharose. Pure hALDH was eluted with 5 mM NADH and pure hQR2 with 5 mM NMeN. The eluants were dialyzed overnight at 4° C. against 25 mM Tris pH 8.0 and 1 mM DTT. hALDHl was assayed as described in Table 2. Purified hQR2 was assayed at 22° C. in 100 μM N-methyldihydronicotinamide, 30 μM menadione, 0.1% Triton X-100, 50 mM Tris pH 8.5, 100 μM dicoumarol (unless stated otherwise). N-methyldihydronicotinamide was synthesized (Ortiz-Maldonado et al, Biochemistry 38(50):16636-16647 (1999)) and stored in 100 mM Tris-sulfate pH 8.0.
An ATP affinity array was charged with RBC and P. falciparum (blood stage) infected RBC extract.
chromatography. P. falciparum-infected or non-infected RBCs were lysed by mixing with an equal volume of 2×buffer A and rocking for 30 min at 4° C. 1×buffer A: 50 mM Hepes, pH 7.5, 50 mM NaCl, 10 mM MgCl2, 0.1% NONIDET-P40, 1 mM dithiothreitol, 1 μg/ml leupeptin, 100 μg/ml pefabloc and 1 μg/ml aprotinin. […] Proteins were resolved by 12% SDS-PAGE and visualized by staining with Coomassie brilliant blue R-250 or silver nitrate. Alternatively, proteins were transferred to PVM membrane (Kaysville, Utah) for mixed peptide sequencing (Damer et al, J. Biol. Chem. 273(38):24396-24405 (1998)).
To better understand the mechanism of the quinolines, an attempt was made to identify all quinoline interacting proteins in a cell or animal lysate. To achieve this, a functional proteomics approach was used as outlined in FIG. 7. In this strategy, three different, yet complementary approaches were conducted to identify and validate targets of the quinolines. In step one, termed displacement affinity chromatography, a specific sub-proteome from a cell is captured on an affinity matrix by virtue of its interaction with an immobilized ligand (FIG. 7, Step 1). The sup-proteome is captured after application of saturating amounts of cell lysate and extensive washing of the resin. The compounds of interest (in this case, the quinolines) are then applied to the matrix in parallel and allowed to interact with the bound proteome. […] In the second step, affinity matrices were created by directly linking the quinoline drugs to Sepharose, and after application of cell lysates, all proteins that specifically eluted from these matrices in the presence of drug were identified (FIG. 7 Step 2).

CCN(CC)CCCC(C)Nc1ccnc2cc(Cl)ccc12 (centres unmarked) [CQ, chloroquine]
proteins eluted from ATP-Sepharose (ALDH1 55 kDa, QR2 26 kDa) (RBC extract, 5 mM drug (Example 2)): selectively eluted proteins of 55 and 26 kDa
proteins eluted from ATP affinity array (hALDH1 and hQR2) (non-infected red cells, drug at [mM]): selectively eluted two proteins
